Values joined by “and” are separate entries in the source; they are usually repeats but may differ in a detail not shown here. Equal values may be shown once. “Also recorded” adds a separate entry of the source. Read-outs that look alike come from different tables or passages of the source.
Columns and labels:
[1] = tested on: subcutaneous Metrazole (scMet) induced convulsions; assay: Subcutaneous pentylenetetrazole (Metrazol) seizure threshold test (scMet) in mice, ip; settings: for ED50 / minimal effective dose: Mus musculus; for ED50: read-out: scMET ED50
Protocol: Protection in this test was defined as a failure to observe a single episode of clonic spasms of at least 5 second duration during a 30 minute period following adminstration of the test compound.

in vivo [2] = settings: mouse, ip
Protocol: (§1) All tests were performed using male Carworth Farms number-one mice. Test solutions of all compounds were prepared in 30% polyethylene glycol 400 and animals were dosed intraperitoneally (ip) at 30 minutes prior to testing.

[3] = tested on: maximal electroshock seizures (MES);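 as to anti-MES / anticonvulsant activity (in words): seizures induced by corneal electroshock, 60-cycle alternating current at 50 mA for 0.2 s, protection means no hind limb tonic extension, scored right after the shock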;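 as to difference between the dosages producing toxicity and anti-MES activity: seizures induced by corneal electroshock, 60-cycle alternating current at 50 mA for 0.2 s, protection means no hind limb tonic extension, scored right after the shock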
Protocol: The preliminary screening was done at doses of the test compounds from 30 mg/kg up to 600 mg/kg adminstered ip in mice and evaluated against maximal electroshock seizures (MES) and subcutaneous Metrazole (scMet) induced convulsions and in the rotorod test for neurologic deficit.
as §1
Maximal electroshock seizures (MES) were elicited with a 60 cycle alternating current of 50 mA intensity delivered for 0.2 second via corneal electrodes. A drop of 0.9% saline was instilled in the eye prior to application of electrodes. The animals were examined and evaluated immediately after the electroshock for the occurrence of clonic, flexor tonic, or extensor tonic convulsions or death. Abolition of the hind limb tonic extension component of the seizure was defined as protection in the MES test. The ED50 was determined for the test compound as the dose which inhibited the occurrence of hind limb tonic convulsions in one half of the animals immediately after the electroshock as determined by graphical interpolation.
(§2) Neurological deficit was measured in mice using the rotorod test. The dosed animal was placed on a 1-inch diameter knurled plastic rod rotating at 6 rpm. Neurologic toxicity was defined as the failure of the animal to remain on the rod for 1 minute. The median anticonvulsant protency (ED50) and toxicity (TD50) were determined by the graphical method.

[4] = tested on: neurologic deficit (rotorod); settings: mouse, in vivo
Protocol: as §1, §2

[5] = tested on: maximal electroshock seizures (MES); settings: cited from earlier work;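 as to anti-MES / anticonvulsant activity (in words): seizures induced by corneal electroshock, 60-cycle alternating current at 50 mA for 0.2 s, protection means no hind limb tonic extension, scored right after the shock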;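 as to difference between the dosages producing toxicity and anti-MES activity: seizures induced by corneal electroshock, 60-cycle alternating current at 50 mA for 0.2 s, protection means no hind limb tonic extension, scored right after the shock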
[6] = tested on: subcutaneous Metrazole (scMet) induced convulsions; settings: cited from earlier work
[7] = man; cited from earlier work
[8] = tested on: neurologic deficit (rotorod); assay: Rotorod test for neurologic deficit in mice, ip
Protocol: as §1, §2

[9] = tested on: convulsions induced by sc bicuculline; assay: sc bicuculline induced seizures in mice; format: in vivo; settings: doses up to 30 mg/kg
[10] = tested on: convulsions induced by sc picrotoxin; assay: sc picrotoxin induced seizures in mice; format: in vivo; settings: doses up to 30 mg/kg
[11] = tested on: convulsions induced by sc strychnine; assay: sc strychnine induced seizures in mice; format: in vivo; settings: doses up to 30 mg/kg
in vivo [12] = settings: mouse, ip; remark: listed apart in the source
Protocol: as §1, §2

[13] = ip, 0.5 h, read-out: scMet activity, 30 min
[14] = ip, 4 h, read-out: scMet activity, 4 hrs
[15] = previous studies by Clark et al.

CCCC(CCC)C(=O)O [Valproic Acid, reference compound]
ED50 ([1]; ip): 149 mg/kg
LD50 (in vivo [2]): 1100 mg/kg

Cc1ccc(C)c(NC(=O)c2ccc(N)cc2)c1 [Example 8]
minimal effective dose [1, 13]: 300 mg/kg
minimal effective dose [1, 14]: > 600 mg/kg
anti-MES / anticonvulsant activity (in words) ([3]; ip, mice): good anti-MES activity

Cc1ccccc1NC(=O)c1ccc(N)cc1 [Example 3, 4-amino-N-(2-methylphenyl) benzamide]
minimal effective dose [1, 13]: > 300 mg/kg
minimal effective dose [1, 14]: > 300 mg/kg
LD50 (in vivo [2]): < 600 mg/kg

Cc1cccc(NC(=O)c2ccc(N)cc2)c1 [Example 4]
minimal effective dose [1, 13]: 300 mg/kg
minimal effective dose [1, 14]: > 600 mg/kg
ED50 ([1]; ip): 87.9 mg/kg
scMET PI (protective index = TD50/ED50) ([1]; ip, mice): 1.62
MES ED50 ([3]; ip, mice): 46.96 mg/kg
difference between the dosages producing toxicity and anti-MES activity ([3]; ip, mice): appreciable difference between the dosages producing toxicity and anti-MES activity
MES PI (protective index = TD50/ED50) ([3]; mouse, in vivo, ip): 3.03
TD50 ([4]; ip): 142.51 mg/kg

CC(C)c1ccccc1NC(=O)c1ccc(N)cc1 [Example 11]
minimal effective dose [1, 13]: 600 mg/kg
MES ED50 ([3]; ip, mice): 81.52 mg/kg
PI values (in words) ([3]; ip, mice): highest PI values
MES PI (protective index = TD50/ED50) ([3]; mouse, in vivo, ip): 8.70
TD50 ([4]; ip): 708.98 mg/kg

Nc1ccc(C(=O)Nc2ccccc2)cc1 [Example 2]
minimal effective dose [1, 13]: 100 mg/kg
minimal effective dose [1, 14]: > 600 mg/kg
scMET PI (protective index = TD50/ED50) ([1]; ip, mice): 1.88
MES PI (protective index = TD50/ED50) ([3]; mouse, in vivo, ip): 2.20
activity against MES induced convulsions (dose range) [5, 15]: ~50 mg/kg
activity against scMet induced convulsions (dose range) [6, 15]: ~50 mg/kg

O=C1NC(=O)C(c2ccccc2)(c2ccccc2)N1 [Phenytoin]
plasma level at which ataxia is obvious [7]: 30000 ng/mL
plasma level at which lethargy is apparent [7]: about 40 mcg/ml
plasma level at which nystagmus is seen [7]: around 20 mcg/ml
plasma level controlling seizures [7]: ≥ 10 µg/mL

Cc1cc(C)cc(NC(=O)c2ccc(N)cc2)c1 [Example 10]
minimal effective dose [1, 13]: > 600 mg/kg
minimal effective dose [1, 14]: > 600 mg/kg
anti-MES / anticonvulsant activity (in words) ([3]; ip, mice): good anti-MES activity

CC(NC(=O)c1ccc(N)cc1)c1ccccc1 (stereo not drawn) [Compound 14]
safety ratio (SR=TD3/ED97), MES test ([3]; mouse, in vivo, ip): 3.5
lethal dose (LD50) (ip, mice): 718.18 mg/kg
MES ED50 ([5]; Clark et al, ip, mice): 18.02 mg/kg
MES PI (TD50/ED50) ([5]; Clark et al, ip, mice): 9.50
scMET ED50 ([6]; Clark et al, ip, mice): 41.78 mg/kg
scMET PI (TD50/ED50) ([6]; Clark et al, ip, mice): 4.10

Cc1ccc(NC(=O)c2ccc(N)cc2)cc1C [Example 9]
minimal effective dose [1, 13]: 300 mg/kg
minimal effective dose [1, 14]: 300 mg/kg
ED50 ([1]; ip): 80.8 mg/kg
MES ED50 ([3]; ip, mice): 42.31 mg/kg
PI values (in words) ([3]; ip, mice): higher PI values
anti-MES / anticonvulsant activity (in words) ([3]; ip, mice): good anti-MES activity
MES PI (protective index = TD50/ED50) ([3]; mouse, in vivo, ip): 4.59
TD50 ([4]; ip): 194.14 mg/kg

CCC1(c2ccccc2)C(=O)NC(=O)NC1=O [Phenobarbital, reference compound]
ED50 ([1]; ip): 13.2 mg/kg
MES ED50 ([3]; ip, mice): 21.78 mg/kg
lethal dose (LD50) (ip, mice): 264.70 mg/kg

CCc1cccc(C(C)C)c1NC(=O)c1ccc(N)cc1 [Example 13]
minimal effective dose [1, 13]: 300 mg/kg
minimal effective dose [1, 14]: > 600 mg/kg
MES ED50 ([3]; ip, mice): 16.67 mg/kg
anti-MES / anticonvulsant activity (in words) ([3]; ip, mice): more potent
MES PI (protective index = TD50/ED50) ([3]; mouse, in vivo, ip): 2.95
TD50 ([4]; ip): 49.10 mg/kg
LD50 (in vivo [2]): < 600 mg/kg
animals with rotorod toxicity at 30 mg/kg ([8]; 30 mg/kg): 1 out of 4

Cc1ccc(NC(=O)c2ccc(N)cc2)cc1 [Example 5, 4-amino-N-(4-methylphenyl) benzamide]
minimal effective dose [1, 13]: 30 mg/kg
minimal effective dose [1, 14]: > 600 mg/kg

Cc1cccc(NC(=O)c2ccc(N)cc2)c1C [Example 6]
minimal effective dose [1, 13]: 100 mg/kg
minimal effective dose [1, 14]: > 300 mg/kg
animals with anti-MES activity at 30 mg/kg ([3]; ip, mice): approximately half the animals
MES ED50 ([3]; ip, mice): 25.25 mg/kg
PI values (in words) ([3]; ip, mice): higher PI values
anti-MES / anticonvulsant activity (in words) ([3]; ip, mice): good anti-MES activity
MES PI (protective index = TD50/ED50) ([3]; mouse, in vivo, ip): 4.11
TD50 ([4]; ip): 103.90 mg/kg
LD50 (in vivo [2]): < 600 mg/kg

Cc1cccc(C)c1NC(=O)c1ccc(N)cc1 [Example 1, 4-Amino-N-(2,6-dimethylphenyl) benzamide]
anti-scMet activity (in words), 30 min ([1]; 30 minutes, ip, mice): No anti-scMet activity
anti-scMet activity (in words), 4 hours ([1]; 4 hours, ip, mice): No anti-scMet activity
minimal effective dose [1, 13]: > 300 mg/kg
minimal effective dose [1, 14]: > 300 mg/kg
effect against convulsions induced by sc metrazole ([1]; doses up to 30 mg/kg, mice): ineffective
anti-scMet activity (in words) ([1]; ip, mice): absent
effect against convulsions induced by sc bicuculline [9]: ineffective
effect against convulsions induced by sc picrotoxin [10]: ineffective
effect against convulsions induced by sc strychnine [11]: ineffective
animals with anti-MES activity at 5 mg/kg ([3]; 5 mg/kg, 30 minutes, ip): 4 of 4
animals with anti-MES activity at 30 mg/kg ([3]; ip, mice): all aminals
anti-MES activity, active dose, 4 hours ([3]; 4 hours after ip administration, mice): 30 mg/kg
MES ED50 ([3]; ip, mice): 2.60 mg/kg and 2.6 mg/kg
anti-MES / anticonvulsant activity (in words) ([3]; ip, mice): good anti-MES activity; also recorded: most potent amide of PABA observed thus far; also recorded: greater potency than any of the prototype anticonvulsant
increase in anti-MES activity over compound 14 ([3]; mice): ~10 fold
time of peak effect for anti-MES activity ([3]; mice): 30 min
PI values (in words) ([3]; mouse, in vivo, ip): higher PI values
animals with rotorod toxicity at 20 mg/kg [4]: 3 of 4
animals with rotorod toxicity at 30 mg/kg [4]: all aminals
increase in toxicity over compound 14 [4]: ~10 fold
time of peak effect for toxicity [4]: 30 min
rotorod toxicity, dose, 30 min ([4]; ip, 30 min): 30 mg/kg
rotorod toxicity, dose, 4 hours ([4]; ip, 240 min): 100 mg/kg
additional toxicity at higher doses (2×TD50 and 4×TD50, ip, mice): muscle relaxation, loss of righting reflex, decreased respiration with cyanosis and ptosis
toxicity induced by the TD50 dose (TD50 dose, ip, mice): decreased motor activity, spasticity, ataxia, rotorod toxicity and sedation
time after which all symptoms had disappeared (mouse, in vivo, ip): ≤ 2 h
LD50 (in vivo [2]): 161 mg/kg
TD50 (in vivo [2]): 43.8 mg/kg
toxicity (in words) [8]: most toxic

Cc1cccc(C(C)C)c1NC(=O)c1ccc(N)cc1 [Example 12]
minimal effective dose [1, 13]: > 600 mg/kg
minimal effective dose [1, 14]: > 600 mg/kg
MES ED50 ([3]; ip, mice): 86.13 mg/kg
PI values (in words) ([3]; ip, mice): highest PI values
anti-MES / anticonvulsant activity (in words) ([3]; ip, mice): more potent
MES PI (protective index = TD50/ED50) ([3]; mouse, in vivo, ip): > 17.42
rotorod toxicity at 600 mg/kg [4]: no rotorod toxicity
TD50 ([4]; ip): > 1500.0 mg/kg
TD50 (in vivo [12]): 1500 to 2000 mg/kg

Cc1cccc(C)c1NC(=O)c1cccc(N)c1 [II-1, 3-amino-N-(2,6-dimethylphenyl) benzamide]
MES ED50 ([3]; ip, mice): 13.48 mg/kg
MES PI (protective index = TD50/ED50) ([3]; mouse, in vivo, ip): 21.11
TD50 (in vivo [12]): 285 mg/kg

Cc1ccc(NC(=O)c2ccc(N)cc2)c(C)c1 [Example 7]
minimal effective dose [1, 13]: 600 mg/kg
minimal effective dose [1, 14]: > 600 mg/kg
anti-MES / anticonvulsant activity (in words) ([3]; ip, mice): good anti-MES activity

Reference: patent US5064862A, “Anticonvulsant method and formulations” (priority 1990, dated 1991)
